Biological target: T1, His6 tagged human recombinant FABP4 (Homo sapiens, UniProt P15090)
T1 construct: purchased Cayman Chemicals 10009549
Experiment: FABP4 TR-FRET assay: displacement of BODIPY FL C12 fatty acid
Settings: triplicates, inhibition of BODIPY FL C12 binding; for inhibition at 1 µM: 1 μM compound; for inhibition at 10 µM: 10 μM compound
Description: Activity of compounds with FABP4 was profiled using a Terbium (Tb) based time resolved fluorescence energy transfer (TR-FRET) assay. The assay measures the compound mediated displacement of the fluorescent fatty acid BODIPY FL C12 (Thermo Fisher; catalog number D3822) from His6 tagged human recombinant FABP4 (His6-FABP4; Cayman Chemicals, catalog number 10009549) via recording the energy transfer from TB donor molecule on anti-His6-tag antibody to acceptor BODIPY moiety. Briefly, compounds were prepared at a concentration of 0.362 mM and 0.0362 mM, and BODIPY FL C12 was prepared at 4.2 μM, in DMSO. 1.2 μL of each compound or DMSO (vehicle control) and 1.2 μL of BODIPY FL C12 were added into the wells of a 384-well black polypropylene plate. His6-FABP4 and Tb anti-His6 antibody were prepared in the assay buffer (25 mM Tris/HCl, pH 7.4, 0.4 mg/ml y-globulins, 0.010% NP-40, 1 mM DTT) at a concentration of 83 nM and 49.6 nM, respectively. The protein and antibody solutions were then mixed at a ratio of 34:7 (v/v) and incubated on ice for 30 minutes. The assay was initiated by adding 41 μL of the resulting protein/antibody solution into the wells containing the compounds and BODIPY FL C12. The plate was centrifuged and incubated at room temperature for 10 min. The TR-FRET signals were recorded using an EnVision Multilabel plate reader (PerkinElmer; TB excitation 320 nm, BODIPY FL C12 emission 520 nm; TB emission 615 nm). Relative fluorescence ratio (520 nm*10,000/615 nm) were used to calculate the compound mediated inhibition of BODIPY C12 FL fatty acid binding to FABP4. […] Glucose consumption and FABP4 inhibition is shown below in Table 3 below.

T1 sequence (P15090 whole entry): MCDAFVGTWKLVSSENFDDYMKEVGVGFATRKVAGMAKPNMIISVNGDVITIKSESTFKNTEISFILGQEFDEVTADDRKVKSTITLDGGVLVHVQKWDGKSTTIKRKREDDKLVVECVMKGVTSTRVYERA

Row | SMILES | inhibition at 1 µM [%] | inhibition at 10 µM [%]
1 | CCC1CCCc2c1n(Cc1cccc(C#N)c1)c1c(C(=O)O)cccc21 (stereo not drawn) [9-[(3-cyanophenyl)methyl]-1-ethyl-2,3,4,9-tetrahydro-1H-carbazole-8-carboxylic acid] | 44.2 | 87.6
2 | CCCCC1CCCCc2c1c1cccc(C(=O)O)c1n2Cc1cccc(C(N)=O)c1 (stereo not drawn) [10-butyl-5-[(3-carbamoylphenyl)methyl]-5H,6H,7H,8H,9H,10H-cyclohepta[b]indole-4-carboxylic acid] | 63.3 | 87.9
3 | CCCCCC1CCCc2c1c1cccc(C(=O)O)c1n2Cc1cccc(C(N)=O)c1 (stereo not drawn) [9-[(3-carbamoylphenyl)methyl]-4-pentyl-2,3,4,9-tetrahydro-1H-carbazole-8-carboxylic acid] | 42.6 | 84.4
4 | CCCCCCC1CCc2c(n(Cc3cccc(C#N)c3)c3c(C(=O)O)cccc23)C1 (stereo not drawn) [9-[(3-cyanophenyl)methyl]-2-hexyl-2,3,4,9-tetrahydro-1H-carbazole-8-carboxylic acid] | 63.6 | 83.4
5 | CCCCCCC1CCCc2c(n(Cc3cccc(C#N)n3)c3c(C(=O)O)cccc23)C1 (stereo not drawn) [5-[(6-cyanopyridin-2-yl)methyl]-7-hexyl-5H,6H,7H,8H,9H,10H-cyclohepta[b]indole-4-carboxylic acid] | 93.5 | 88.1
6 | CCCCC1CCCc2c(n(Cc3cccc(C(=O)O)c3)c3c(C(=O)O)cccc23)C1 (stereo not drawn) [7-butyl-5-[(3-carboxyphenyl)methyl]-5H,6H,7H,8H,9H,10H-cyclohepta[b]indole-4-carboxylic acid] | 91.8 | 100
7 | CCCCCCC1CCCc2c(n(Cc3cccc(C#N)c3F)c3c(C(=O)O)cccc23)C1 (stereo not drawn) [5-[(3-cyano-2-fluorophenyl)methyl]-7-hexyl-5H,6H,7H,8H,9H,10H-cyclohepta[b]indole-4-carboxylic acid] | 87.9 | 95.5
8 | CCCCCCC1CCCc2c(n(Cc3cccc(C#N)c3)c3c(C(=O)O)cccc23)C1 (stereo not drawn) [5-[(3-cyanophenyl)methyl]-7-hexyl-5H,6H,7H,8H,9H,10H-cyclohepta[b]indole-4-carboxylic acid] | 94.1 | 88.7
9 | CCCCCCC1CCc2c(n(Cc3cccc(C(=O)O)c3)c3c(C(=O)O)cccc23)C1 (stereo not drawn) [9-[(3-carboxyphenyl)methyl]-2-hexyl-2,3,4,9-tetrahydro-1H-carbazole-8-carboxylic acid] | 23.9 | 73
10 | CCCCC1CCCc2c(n(Cc3ccccc3C)c3c(C(=O)O)cccc23)C1 (stereo not drawn) [7-butyl-5-[(2-methylphenyl)methyl]-5H,6H,7H,8H,9H,10H-cyclohepta[b]indole-4-carboxylic acid] | 101 | 95.3
11 | CCCCC1CCCc2c(n(Cc3cccc(Cl)c3)c3c(C(=O)O)cccc23)C1 (stereo not drawn) [7-butyl-5-[(3-chlorophenyl)methyl]-5H,6H,7H,8H,9H,10H-cyclohepta[b]indole-4-carboxylic acid] | 84.2 | 83
12 | CCCCCCC1CCCc2c(n(Cc3cccc(C(=O)O)n3)c3c(C(=O)O)cccc23)C1 (stereo not drawn) [6-({4-carboxy-7-hexyl-5H,6H,7H,8H,9H,10H-cyclohepta[b]indol-5-yl}methyl)pyridine-2-carboxylic acid] | 91.6 | 96.5
13 | CCC1CCCc2c(n(Cc3cccc(C#N)c3)c3c(C(=O)O)cccc23)C1 (stereo not drawn) [5-[(3-cyanophenyl)methyl]-7-ethyl-5H,6H,7H,8H,9H,10H-cyclohepta[b]indole-4-carboxylic acid] | 90 | 97
14 | CCCCCCC1CCc2c(n(Cc3ccccc3F)c3c(C(=O)O)cccc23)C1 (stereo not drawn) [9-[(2-fluorophenyl)methyl]-2-hexyl-2,3,4,9-tetrahydro-1H-carbazole-8-carboxylic acid] | 81.8 | 84.9
15 | CCC1CCCc2c(n(Cc3cccc(C(N)=O)c3)c3c(C(=O)O)cccc23)C1 (stereo not drawn) [5-[(3-carbamoylphenyl)methyl]-7-ethyl-5H,6H,7H,8H,9H,10H-cyclohepta[b]indole-4-carboxylic acid] | 91.8 | 100
16 | N#Cc1cccc(Cn2c3c(c4cccc(C(=O)O)c42)CCCC(CCc2ccccc2)C3)c1 (stereo not drawn) [5-[(3-cyanophenyl)methyl]-7-(2-phenylethyl)-5H,6H,7H,8H,9H,10H-cyclohepta[b]indole-4-carboxylic acid] | 93.1 | 94.5

Row | SMILES | inhibition at 1 µM [%] | inhibition at 10 µM [%]
17 | CCCCCC1Cc2c(n(Cc3cccc(C#N)c3)c3c(C(=O)O)cccc23)C1 (stereo not drawn) [4-[(3-cyanophenyl)methyl]-2-pentyl-1H,2H,3H,4H-cyclopenta[b]indole-5-carboxylic acid] | 39.5 | 78.3
18 | CCCCC1CCc2c1n(Cc1cccc(C(N)=O)c1)c1c(C(=O)O)cccc21 (stereo not drawn) [3-butyl-4-[(3-carbamoylphenyl)methyl]-1H,2H,3H,4H-cyclopenta[b]indole-5-carboxylic acid] | 96.8 | 98.5
19 | CCCC1CCc2c(n(Cc3cccc(C#N)c3)c3c(C(=O)O)cccc23)C1 (stereo not drawn) [9-[(3-cyanophenyl)methyl]-2-propyl-2,3,4,9-tetrahydro-1H-carbazole-8-carboxylic acid] | 55.6 | 81.4
20 | CCCCC1CCCc2c(n(Cc3ccc(C)cc3)c3c(C(=O)O)cccc23)C1 (stereo not drawn) [7-butyl-5-[(4-methylphenyl)methyl]-5H,6H,7H,8H,9H,10H-cyclohepta[b]indole-4-carboxylic acid] | 106 | 92.4
21 | CCCCC1CCCc2c(n(Cc3cccc(C#N)c3)c3c(C(=O)NCC(=O)O)cccc23)C1 (stereo not drawn) [2-({7-butyl-5-[(3-cyanophenyl)methyl]-5H,6H,7H,8H,9H,10H-cyclohepta[b]indol-4-yl}formamido)acetic acid] | 8.61 | 41
22 | CCCCC1CCCc2c(n(Cc3ccccc3C(N)=O)c3c(C(=O)O)cccc23)C1 (stereo not drawn) [7-butyl-5-[(2-carbamoylphenyl)methyl]-5H,6H,7H,8H,9H,10H-cyclohepta[b]indole-4-carboxylic acid] | 71.3 | 94.5
23 | CCCCCCC1CCCc2c(n(Cc3c(C)noc3C)c3c(C(=O)O)cccc23)C1 (stereo not drawn) [5-[(3,5-dimethyl-1,2-oxazol-4-yl)methyl]-7-hexyl-5H,6H,7H,8H,9H,10H-cyclohepta[b]indole-4-carboxylic acid] | 79.8 | 95.6
24 | CCC1CCCc2c1n(Cc1cccc(C(=O)O)c1)c1c(C(=O)O)cccc21 (stereo not drawn) [9-[(3-carboxyphenyl)methyl]-1-ethyl-2,3,4,9-tetrahydro-1H-carbazole-8-carboxylic acid] | 39.6 | 78.5
25 | CCCCCCC1CCCc2c(n(Cc3ccnc(C(F)(F)F)c3)c3c(C(=O)O)cccc23)C1 (stereo not drawn) [7-hexyl-5-{[2-(trifluoromethyl)pyridin-4-yl]methyl}-5H,6H,7H,8H,9H,10H-cyclohepta[b]indole-4-carboxylic acid] | 87.6 | 94.7
26 | CCCCCCC1CCc2c(n(Cc3cccc(C(N)=O)c3)c3c(C(=O)O)cccc23)C1 (stereo not drawn) [9-[(3-carbamoylphenyl)methyl]-2-hexyl-2,3,4,9-tetrahydro-1H-carbazole-8-carboxylic acid] | 92.8 | 90.5
27 | CCCCC1CCCc2c(n(Cc3ccnc(OC)c3)c3c(C(=O)O)cccc23)C1 (stereo not drawn) [7-butyl-5-[(2-methoxypyridin-4-yl)methyl]-5H,6H,7H,8H,9H,10H-cyclohepta[b]indole-4-carboxylic acid] | 83.4 | 88.2
28 | CCC1CCCCc2c1c1cccc(C(=O)O)c1n2Cc1cccc(C#N)c1 (stereo not drawn) [5-[(3-cyanophenyl)methyl]-10-ethyl-5H,6H,7H,8H,9H,10H-cyclohepta[b]indole-4-carboxylic acid] | 92.4 | 98.2
29 | CCCCCCC1CCc2c(n(Cc3ccccc3C)c3c(C(=O)O)cccc23)C1 (stereo not drawn) [2-hexyl-9-[(2-methylphenyl)methyl]-2,3,4,9-tetrahydro-1H-carbazole-8-carboxylic acid] | 87.4 | 83.2
30 | CCC1CCc2c(n(Cc3cccc(C(N)=O)c3)c3c(C(=O)O)cccc23)C1 (stereo not drawn) [9-[(3-carbamoylphenyl)methyl]-2-ethyl-2,3,4,9-tetrahydro-1H-carbazole-8-carboxylic acid] | 85.5 | 101
31 | CCCCCCC1CCCc2c(n(Cc3cccc(OC)c3)c3c(C(=O)O)cccc23)C1 (stereo not drawn) [7-hexyl-5-[(3-methoxyphenyl)methyl]-5H,6H,7H,8H,9H,10H-cyclohepta[b]indole-4-carboxylic acid] |  | 93.6
32 | CCCC1CCc2c1n(Cc1cccc(C(N)=O)c1)c1c(C(=O)O)cccc21 (stereo not drawn) [4-[(3-carbamoylphenyl)methyl]-3-propyl-1H,2H,3H,4H-cyclopenta[b]indole-5-carboxylic acid] | 89.1 | 95.3

— patent US12084419B2, “Cell metabolism modulating compounds and uses thereof” (CRESCENTA BIOSCIENCES, priority 2020, dated 2024)
